Test system: K-562 leukemia growth, % test/control
Assay: Anticancer human tumor K-562 cell line growth inhibition;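 also: spheroids exposed to compounds for 7 days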;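 as to viability, T/C: 100% = DMSO vehicle wells and lower values mean fewer viable cells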
Settings: spheroids with HUVEC and MSC; for IC50: curve of first compound; for viability, T/C: stronger effect = lower value
Source text: Multicellular complex tumor spheroid response to LSD1 Inhibitor Iadademstat in combination with a variety of drugs and investigational agents in selected tumor cell lines
The current study was undertaken to assess response to LSD1 inhibitors in combination with standard-of-care drugs and investigational agents in solid tumor complex spheroid models as well as in the K-562 leukemia. Complex spheroids include a stromal component modeled by human endothelial cells (HUVEC) and fibroblasts modeled by human mesenchymal stem cells (MSCs). The concentration ranges selected for each drug and investigational agent were based upon clinically achievable concentrations if the clinical Cmax of the agent was known.
Compounds. The drugs and investigational agents used in this study are listed on Table 1. All of the agents used, including staurosporine (NSC755774) and gemcitabine (NSC613327), were obtained from the Developmental Therapeutics Program, NCI. FDA-approved anticancer drugs are available from the NCI at http://dtp.nci.nih.gov/branches/dscb/oncology_drugset_explanation.html. Drugs and investigational agents were >95% pure by proton nuclear magnetic resonance (NMR) and liquid chromatography/mass spectrometry (LC/MS). Stock solutions were prepared at 400x in DMSO, stored at -70 degrees C, and diluted in fresh medium prior to their use. The final concentration of DMSO in cell culture wells never exceeded 0.25% (v/v). The FDA-approved anticancer drug set is available from the Developmental Therapeutics Program at https://dtp.cancer.gov/organization/dscb/obtaining/available_plates.htm. All drugs and investigational agents were tested over a range starting from a high concentration at or near the clinical Cmax and decreasing in half-log increments. If the clinical Cmax for an agent had not been determined, the highest concentration tested was 10 microM.
Cell Lines. The patient-derived cancer cell (PDC) lines: 292921-168-R-J2-PDC, K24384-001-R-PDC, and 521955-158-R2-J5-PDC pancreatic carcinomas, 556581-035-R-J1 ovarian carcinoma, 324938-238-R-J1-PDC, 855422-203-R-J1-PDC and 883617-216-R-J1-PDC urothelial bladder carcinomas, 743489-274-T-PDC renal cell carcinoma, 138582-R-J1 Merkel cell tumor, K60290-347-R-J1 and K57222-313-R-J1-PDC glioblastomas, 653999-131-R-J2-PDC, LG0703-F948-PDC, and 349418-098-R-PDC non-small cell lung carcinomas, 885512-296-R-J2-PDC, 171881-019-R-J1-PDC breast carcinomas and 186277-243-T-J2-PDC and 233499-124-R-J2-PDC colon carcinomas were obtained from the NCI Patient-Derived Models Repository (PDMR, https://pdmr.cancer.gov). The established cell lines NCI/ADR-RES (RRID:CVCL_14520 and OVCAR-5 (RRID:CVCL_1628) ovarian carcinomas, 786-O (RRID:CVCL_1051) and A498 (RRID:CVCL_A498) renal cell carcinoma, NCI-H211 (ATCC, cat. CRL-5824; RRID:CVCL_1529), NCI-H196 (ATCC, cat. CRL-5823, RRID:CVCL_1509), SW 1271 (ATCC, cat. CRL-2177, RRID:CVCL_1716) and NCI-H1876 (ATCC, cat. CRL-5902, RRID:CVCL_1503) small cell lung carcinomas, MDA-MB-231 (RRID:CVCL_0062) and MDA-MB-468 (RRID:CVCL_0419)breast carcinomas (10-12). Pooled donor human umbilical vein endothelial cells (HUVEC, Lonza, cat. CC-2519) and human mesenchymal stem cells (hMSC, Lonza, cat. PT-2501) were purchased from Lonza (Walkersville, MD).
Cell Culture. All cells were maintained in an incubator at 37 degrees C and 5% CO2 with 95% humidity. The PDC lines were cultured according to standard operating procedures established by the NCI PDMR (https://pdmr.cancer.gov). Briefly all PDCs were thawed and cultured in Matrigel-coated flasks prepared with a working solution of 1X Ham's F-12 nutrient mix, without supplementation (Invitrogen, Waltham, MA, cat. 11765054), 100 U/mL penicillin-streptomycin (Invitrogen, cat. 15140122), and 2.5% Matrigel (Corning Inc., Corning, NY, cat. 354248) for the first three passages. […]

[1] = second compound 0.1 µM, first compound 0.0316 µM
[2] = second compound 0.1 µM, first compound 0.1 µM
[3] = second compound 0.1 µM, first compound 0.316 µM
[4] = second compound 0.1 µM, first compound 1 µM
[5] = second compound 0.316 µM, first compound 0.0316 µM
[6] = second compound 0.316 µM, first compound 0.1 µM
[7] = second compound 0.316 µM, first compound 0.316 µM
[8] = second compound 0.316 µM, first compound 1 µM
[9] = second compound 1 µM, first compound 0.0316 µM
[10] = second compound 1 µM, first compound 0.1 µM
[11] = second compound 1 µM, first compound 0.316 µM
[12] = second compound 1 µM, first compound 1 µM
[13] = second compound 3.16 µM, first compound 0.0316 µM
[14] = second compound 3.16 µM, first compound 0.1 µM
[15] = second compound 3.16 µM, first compound 0.316 µM
[16] = second compound 3.16 µM, first compound 1 µM
[17] = second compound 10 µM, first compound 0.0316 µM
[18] = second compound 10 µM, first compound 0.1 µM
[19] = second compound 10 µM, first compound 0.316 µM
[20] = second compound 10 µM, first compound 1 µM

| Structure (SMILES) | IC50 (second compound 0.1 µM) [nM] | IC50 (second compound 0.316 µM) [nM] | IC50 (second compound 1 µM) [nM] | IC50 (second compound 3.16 µM) [nM] | IC50 (second compound 10 µM) [nM] | viability, T/C [1] [%] | viability, T/C [2] [%] | viability, T/C [3] [%] | viability, T/C [4] [%] | viability, T/C [5] [%] | viability, T/C [6] [%] | viability, T/C [7] [%] | viability, T/C [8] [%] | viability, T/C [9] [%] | viability, T/C [10] [%] | viability, T/C [11] [%] | viability, T/C [12] [%] | viability, T/C [13] [%] | viability, T/C [14] [%] | viability, T/C [15] [%] | other results |
| --- | --- | --- | --- | --- | --- | --- | --- | --- | --- | --- | --- | --- | --- | --- | --- | --- | --- | --- | --- | --- | --- |
| O=C(c1cc(Cc2n[nH]c(=O)c3ccccc23)ccc1F)N1CCN(C(=O)C2CC2)CC1 + NC1CC1c1ccc(-c2cccc(O)c2)cc1 | 9600 | 9550 | > 10000 | > 10000 | 8390 | 111 | 108 | 108 | 106 | 107 | 103 | 102 | 101 | 98 | 100 | 102 | 98.8 | 104 | 101 | 100 | viability, T/C (second compound 0.1 µM, first compound 3.16 µM): 94.3%; viability, T/C (second compound 0.1 µM, first compound 10 µM): 48.4%; viability, T/C (second compound 0.316 µM, first compound 3.16 µM): 90.2%; viability, T/C (second compound 0.316 µM, first compound 10 µM): 47.9%; viability, T/C (second compound 1 µM, first compound 3.16 µM): 89.9%; viability, T/C (second compound 1 µM, first compound 10 µM): 50.1%; viability, T/C [16]: 96.9%; viability, T/C (second compound 3.16 µM, first compound 3.16 µM): 87.8%; viability, T/C (second compound 3.16 µM, first compound 10 µM): 51.2%; viability, T/C [17]: 100%; viability, T/C [18]: 99.8%; viability, T/C [19]: 101%; viability, T/C [20]: 96%; viability, T/C (second compound 10 µM, first compound 3.16 µM): 79.2%; viability, T/C (second compound 10 µM, first compound 10 µM): 44.7% |
| COc1cc(Nc2ncc3c(n2)-c2ccc(Cl)cc2C(c2c(F)cccc2OC)=NC3)ccc1C(=O)O + NC1CCC(NC2CC2c2ccccc2)CC1 | 3.23 | 3.86 | 3.25 | 3.29 | < 3.16 | 20.4 | 17.8 | 14.6 | 10.7 | 22 | 19.3 | 13.9 | 11.1 | 23.4 | 16.7 | 13.1 | 12.1 | 23.7 | 21.4 | 18.5 | viability, T/C (second compound 0.1 µM, first compound 0.00316 µM): 51%; viability, T/C (second compound 0.1 µM, first compound 0.01 µM): 21.1%; viability, T/C (second compound 0.316 µM, first compound 0.00316 µM): 55.8%; viability, T/C (second compound 0.316 µM, first compound 0.01 µM): 22.6%; viability, T/C (second compound 1 µM, first compound 0.00316 µM): 51.4%; viability, T/C (second compound 1 µM, first compound 0.01 µM): 21%; viability, T/C (second compound 3.16 µM, first compound 0.00316 µM): 51.1%; viability, T/C (second compound 3.16 µM, first compound 0.01 µM): 21.3%; viability, T/C [16]: 12.1%; viability, T/C (second compound 10 µM, first compound 0.00316 µM): 46.5%; viability, T/C (second compound 10 µM, first compound 0.01 µM): 22.1%; viability, T/C [17]: 25.6%; viability, T/C [18]: 24.6%; viability, T/C [19]: 19.9%; viability, T/C [20]: 12.6% |

From PubChem BioAssay AID1918948 (Molecular Pharmacology Branch, DTP, NCI, 2023)
